Results from patent US8394829B2, “Bi-functional quinoline analogs” (Gilead Sciences, Inc., priority 2010, dated 2013).

Legend:
Human recombinant PDE4B2 = target: T1, Human recombinant PDE4B2 (Homo sapiens, UniProt Q07343); test: Inhibition of PDE4B4 enzyme activity (PDE Glo Assay); type: biochemical; details: human recombinant PDE4B2, 50 nM cAMP; read-out: PDE4 IC50
T1 construct: purchased BPS Bioscience
Outline: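 Human recombinant PDE4B2 (0.12 nM) was pre-incubated with compound for 10 min at rt, then 50 nM cAMP was added for 1 hr. After IBMX stop and PKA detection, read-out was Kinase-Glo luminescence. IC50 came from a single-site nonlinear fit of RLU versus concentration.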

[1] = target: T2, human recombinant beta-2 adrenoreceptors (Homo sapiens, UniProt P07550); test: Functional agonism of human recombinant beta-2 adrenoreceptors expressed in CHO cells (cAMP HTRF); type: cell-based; details: CHO cells expressing human beta-2 adrenoreceptors, cAMP elevation, 30 min
T2 construct: expressed in transfected cells; host or cells: CHO cells
Outline: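 CHO cells expressing recombinant receptor incubated with compound for 30 min; intracellular cAMP rise over control read by HTRF. EC50 taken as concentration giving 50% of that compound's own maximal response, with full or partial agonism judged against isoproterenol maximum.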

[2] = target: T2, human recombinant beta-2 adrenoreceptors; test: Beta-2 adrenoceptor binding assay ([3H](−)CGP-12177 displacement); details: CHO cells expressing human beta-2 adrenoreceptors, [3H](−)CGP-12177 0.3 nM, 120 min
Outline: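 Displacement of [3H](−)CGP-12177 (0.3 nM) from human recombinant beta-2 receptors expressed in CHO cells, measured after 120 min incubation with test compound. Bound radioligand counted by scintillation; IC50 taken from concentration-response curves as 50% of each compound's maximal inhibition.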

[3] = test system: LPS-induced TNF-α release from human peripheral blood mononuclear cells (PBMC); test: Inhibition of LPS-induced TNF-α release from human PBMC; type: cell-based; details: LPS 0.4 ng/mL, 6 h, presence or absence of ICI-118551 not given
Outline: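 Ficoll-purified primary PBMC, 100,000 cells/well, pre-incubated 30 min ± 10 μM ICI-118551 (± gives PDE4-only vs PDE4 plus beta-2 activity), then compound 1 h at 37 °C (0.1% DMSO). Stimulated with 0.4 ng/mL LPS for 6 h; supernatant TNF-α by bead cytokine assay; IC50 from single-site fit.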

T2 sequence (P07550 whole entry): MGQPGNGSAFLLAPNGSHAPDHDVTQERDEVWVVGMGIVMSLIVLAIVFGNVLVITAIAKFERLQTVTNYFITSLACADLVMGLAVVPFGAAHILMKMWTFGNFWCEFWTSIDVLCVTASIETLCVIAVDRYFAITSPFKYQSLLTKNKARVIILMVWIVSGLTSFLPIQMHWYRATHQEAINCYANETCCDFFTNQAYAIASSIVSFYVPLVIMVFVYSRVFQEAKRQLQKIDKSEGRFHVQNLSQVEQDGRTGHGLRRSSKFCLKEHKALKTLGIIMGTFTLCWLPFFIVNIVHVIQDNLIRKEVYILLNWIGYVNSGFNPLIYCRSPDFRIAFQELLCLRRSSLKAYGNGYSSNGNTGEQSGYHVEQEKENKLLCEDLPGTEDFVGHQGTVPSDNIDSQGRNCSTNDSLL
T1 sequence (Q07343 1-564 isoform Q07343-2): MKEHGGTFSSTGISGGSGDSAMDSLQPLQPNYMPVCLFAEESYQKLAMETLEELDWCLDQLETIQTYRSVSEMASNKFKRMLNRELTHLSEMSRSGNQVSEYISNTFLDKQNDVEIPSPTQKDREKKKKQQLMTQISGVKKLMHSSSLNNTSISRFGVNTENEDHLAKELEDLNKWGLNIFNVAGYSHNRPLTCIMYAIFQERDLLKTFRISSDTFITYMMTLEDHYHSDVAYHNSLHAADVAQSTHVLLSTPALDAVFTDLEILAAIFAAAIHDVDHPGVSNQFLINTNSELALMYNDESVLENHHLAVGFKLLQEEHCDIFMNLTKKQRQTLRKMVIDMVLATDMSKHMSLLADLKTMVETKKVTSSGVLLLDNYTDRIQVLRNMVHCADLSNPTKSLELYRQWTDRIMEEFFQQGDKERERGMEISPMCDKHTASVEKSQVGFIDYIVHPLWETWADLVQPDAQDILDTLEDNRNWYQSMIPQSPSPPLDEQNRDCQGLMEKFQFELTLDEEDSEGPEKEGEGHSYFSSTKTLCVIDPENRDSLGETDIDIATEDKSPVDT

Row | IC50 (Human recombinant PDE4B2) [nM] | EC50 [1] [nM] | IC50 [2] [nM] | Structure (SMILES) | EC50 [3] [nM]
1 | < 100 | < 100 | < 100 | COc1cccc(Nc2c(C(N)=O)cnc3c(C)cc(S(=O)(=O)c4cccc(C(=O)Nc5ccc(CCOCCCCCCNC[C@H](O)c6ccc(O)c7[nH]c(=O)ccc67)cc5)c4)cc23)c1 [Example 39, (R)-6-((3-((4-(2-((6-((2-hydroxy-2-(8-hydroxy-2-oxo-1,2-dihydroquinolin-5-yl)ethyl)amino)hexyl)oxy)ethyl)phenyl)carbamoyl)phenyl)sulfonyl)-4-((3-methoxyphenyl)amino)-8-methylquinoline-3-carboxamide] | < 100
2 | < 100 | < 100 | < 100 | COc1cccc(Nc2c(C(N)=O)cnc3c(C)cc(S(=O)(=O)CCCCCCCCCCCNC[C@H](O)c4ccc(O)c5[nH]c(=O)ccc45)cc23)c1 [Example 45, (R)-6-((11-((2-hydroxy-2-(8-hydroxy-2-oxo-1,2-dihydroquinolin-5-yl)ethyl)amino)undecyl)sulfonyl)-4-((3-methoxyphenyl)amino)-8-methylquinoline-3-carboxamide] | < 100
3 | < 100 | < 100 | < 100 | COc1cccc(Nc2c(C(N)=O)cnc3c(C)cc(S(=O)(=O)c4cccc(C(=O)NCCCCCCNC[C@H](O)c5ccc(O)c(CO)c5)c4)cc23)c1 [Example 41, (R)-6-[[3-[[6-[[2-Hydroxy-2-[4-hydroxy-3-(hydroxymethyl)phenyl]ethyl]amino]hexyl]carbamoyl]phenyl]sulfonyl]-4-[(3-methoxyphenyl)amino]-8-methylquinoline-3-carboxamide] | < 100
4 | < 100 | < 100 | < 100 | COc1cccc(Nc2c(C(N)=O)cnc3c(C)cc(S(=O)(=O)c4cccc(C(=O)NCCCCCCNC[C@H](O)c5ccc(O)c(NS(C)(=O)=O)c5)c4)cc23)c1 [Example 43, (R)-6-[[3-[[6-[[2-Hydroxy-2-[4-hydroxy-3-(methylsulfonamido)phenyl]ethyl]amino]hexyl]carbamoyl]phenyl]sulfonyl]-4-[(3-methoxyphenyl)amino]-8-methylquinoline-3-carboxamide] | < 100
5 | < 100 | < 100 | < 100 | COc1cccc(Nc2c(C(N)=O)cnc3c(C)cc(S(=O)(=O)c4cccc(C(=O)NCCCCCCCCNC[C@H](O)c5ccc(O)c6[nH]c(=O)ccc56)c4)cc23)c1 [Example 1, (R)-6-[[3-[[8-[[2-Hydroxy-2-(8-hydroxy-2-oxo-1,2-dihydroquinolin-5-yl)ethyl]amino]octyl]carbamoyl]phenyl]sulfonyl]-4-[(3-methoxyphenyl)amino]-8-methylquinoline-3-carboxamide] | < 100
6 | < 100 | < 100 | < 100 | COc1cccc(Nc2c(C(N)=O)cnc3c(C)cc(S(=O)(=O)c4cccc(C(=O)Nc5ccc(C#CCCCCNC[C@H](O)c6ccc(O)c7[nH]c(=O)ccc67)cc5)c4)cc23)c1 [Example 7, (R)-6-((3-((4-(6-((2-hydroxy-2-(8-hydroxy-2-oxo-1,2-dihydroquinolin-5-yl)ethyl)amino)hex-1-yn-1-yl)phenyl)carbamoyl)phenyl)sulfonyl)-4-((3-methoxyphenyl)amino)-8-methylquinoline-3-carboxamide] | < 100
7 | < 100 | < 100 | < 100 | COc1cccc(Nc2c(C(N)=O)cnc3c(C)cc(S(=O)(=O)c4cccc(C(=O)NCCCCCCNC[C@H](O)c5ccc(O)c6c5OCC(=O)N6)c4)cc23)c1 [Example 29, (R)-6-((3-((6-((2-hydroxy-2-(5-hydroxy-3-oxo-3,4-dihydro-2H-benzo[b][1,4]oxazin-8-yl)ethyl)amino)hexyl)carbamoyl)phenyl)sulfonyl)-4-((3-methoxyphenyl)amino)-8-methylquinoline-3-carboxamide] | < 100
